For orientation: inhibition in vivo means the change of the read-out against control, counted positive when it falls. A high value points to a strong effect.

One experiment concerns Cricetinae gen. sp. In words: Ability to protect microvascular damages in ischemia/reperfusion (in vivo) was determined by measuring the inhibition of leaky sites, 30-min after the start of reperfusion at 30 mg/kg. The class given is functional, Cricetulus griseus. The settings on record: 0.5 h.
The nature of experiment [1]: Antioxidant efficiency of compounds was evaluated by the lag phase duration until onset of linoleate peroxidation induced by AAPH.

In the experiment on Cricetinae gen. sp., `Oc1c(-c2ccccc2)nc2cnccn12` gave an inhibition in vivo at 30 mg/kg of 79%. Also, the Lag time in experiment [1] is 146 min. The corresponding values for `COc1ccc(-c2nc3cnccn3c2O)cc1` are 85% and 79.6 min. Regarding `Cc1c(C)c2c(c(C)c1O)CCC(C)(C(=O)O)O2` (stereo not drawn), the Lag time in experiment [1] was found to be 128 min.

In the case of `Oc1c(-c2ccc3ccccc3c2)nc2cnccn12`, in the experiment with Cricetinae gen. sp., the inhibition in vivo at 30 mg/kg is 57%. Besides, the Lag time in experiment [1] was determined as 74.9 min. Take `Oc1c(-c2ccc(F)cc2)nc2cnccn12`: the inhibition in vivo at 30 mg/kg in the experiment on Cricetinae gen. sp. stood at 37%. In experiment [1], this molecule displayed a Lag time of 122 min. In turn, `Oc1c(-c2ccc(-c3ccccc3)cc2)nc2cnccn12` had an inhibition in vivo at 30 mg/kg in the experiment on Cricetinae gen. sp. of 71%. For the same molecule, in experiment [1], the Lag time is 77.5 min. For `Cc1nc2cnccn2c1O`, 30 mg/kg produced 49% inhibition in vivo in the experiment on Cricetinae gen. sp.. Also, in experiment [1], the Lag time was 134 min.

Consider `Oc1c(-c2ccc(Cl)cc2)nc2cnccn12`, for which the inhibition in vivo at 30 mg/kg in the experiment on Cricetinae gen. sp. came to 82%. The molecule also returned a Lag time in experiment [1] of 111 min. Regarding `COc1cc(C(C)=O)ccc1O` [APOCYNIN], in the experiment on Cricetinae gen. sp., testing at 30 mg/kg gave an inhibition in vivo of 59%. Take `Cc1ccc(-c2nc3cnccn3c2O)cc1`: the inhibition in vivo at 30 mg/kg with Cricetinae gen. sp. was determined as 67%. The molecule further returned a Lag time in experiment [1] of 78.7 min.
